Measured values taken from ChEMBL document CHEMBL4507290 (2021).

Legend:
[1] = target: Cyclin-dependent kinase 5 (Homo sapiens) (UniProt Q00535); conditions: Compound concentration 1000.0 nM
[2] = target: Activin receptor type-2B (Homo sapiens) (UniProt Q13705); conditions: Compound concentration 1000.0 nM
[3] = target: Platelet-derived growth factor receptor alpha (Homo sapiens) (UniProt P16234); conditions: Compound concentration 1000.0 nM
[4] = target: Receptor-interacting serine/threonine-protein kinase 2 (Homo sapiens) (UniProt O43353); conditions: Compound concentration 1000.0 nM
[5] = target: Beta-1 adrenergic receptor (Homo sapiens) (UniProt P08588); conditions: Compound concentration 10.0 uM
Chain of Beta-1 adrenergic receptor (Homo sapiens) (P08588 whole entry, looked up): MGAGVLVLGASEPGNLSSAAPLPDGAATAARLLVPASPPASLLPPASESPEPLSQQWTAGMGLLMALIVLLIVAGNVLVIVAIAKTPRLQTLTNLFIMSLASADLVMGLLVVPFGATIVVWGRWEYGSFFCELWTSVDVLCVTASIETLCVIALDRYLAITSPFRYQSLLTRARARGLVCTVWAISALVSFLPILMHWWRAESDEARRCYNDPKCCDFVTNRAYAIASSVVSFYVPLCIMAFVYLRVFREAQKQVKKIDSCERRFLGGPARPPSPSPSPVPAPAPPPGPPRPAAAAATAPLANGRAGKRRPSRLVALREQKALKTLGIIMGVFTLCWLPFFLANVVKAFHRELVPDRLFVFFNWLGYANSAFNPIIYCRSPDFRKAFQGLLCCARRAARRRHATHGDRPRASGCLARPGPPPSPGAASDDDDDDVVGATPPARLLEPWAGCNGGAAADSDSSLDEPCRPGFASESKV

[6] = test system: Leucine-rich repeat serine/threonine-protein kinase 2 (Homo sapiens), Q5S007 [G2019S]; conditions: Compound concentration 1000.0 nM
[7] = target: Interleukin-1 receptor-associated kinase 1 (Homo sapiens) (UniProt P51617); conditions: Compound concentration 1000.0 nM
Chain of Interleukin-1 receptor-associated kinase 1 (Homo sapiens) (P51617 whole entry, looked up): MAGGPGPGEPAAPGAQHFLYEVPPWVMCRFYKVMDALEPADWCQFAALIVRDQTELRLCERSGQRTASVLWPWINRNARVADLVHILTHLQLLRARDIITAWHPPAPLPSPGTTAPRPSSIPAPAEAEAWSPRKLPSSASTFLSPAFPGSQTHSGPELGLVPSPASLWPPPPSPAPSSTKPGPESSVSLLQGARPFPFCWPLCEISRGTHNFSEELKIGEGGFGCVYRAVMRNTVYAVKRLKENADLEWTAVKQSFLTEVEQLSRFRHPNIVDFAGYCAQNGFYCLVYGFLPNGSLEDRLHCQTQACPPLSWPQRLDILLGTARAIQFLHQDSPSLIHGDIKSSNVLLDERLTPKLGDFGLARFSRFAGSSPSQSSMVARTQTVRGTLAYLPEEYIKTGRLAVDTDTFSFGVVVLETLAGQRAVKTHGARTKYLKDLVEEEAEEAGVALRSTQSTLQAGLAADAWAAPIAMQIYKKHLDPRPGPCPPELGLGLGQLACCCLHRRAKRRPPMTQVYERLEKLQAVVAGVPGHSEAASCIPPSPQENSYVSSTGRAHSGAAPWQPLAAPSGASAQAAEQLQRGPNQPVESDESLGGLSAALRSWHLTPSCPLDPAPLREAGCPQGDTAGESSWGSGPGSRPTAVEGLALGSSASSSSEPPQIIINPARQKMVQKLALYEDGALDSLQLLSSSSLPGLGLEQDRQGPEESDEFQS

[8] = target: Mitogen-activated protein kinase kinase kinase kinase 5 (Homo sapiens) (UniProt Q9Y4K4); conditions: Compound concentration 1000.0 nM
Chain of Mitogen-activated protein kinase kinase kinase kinase 5 (Homo sapiens) (Q9Y4K4 whole entry, looked up): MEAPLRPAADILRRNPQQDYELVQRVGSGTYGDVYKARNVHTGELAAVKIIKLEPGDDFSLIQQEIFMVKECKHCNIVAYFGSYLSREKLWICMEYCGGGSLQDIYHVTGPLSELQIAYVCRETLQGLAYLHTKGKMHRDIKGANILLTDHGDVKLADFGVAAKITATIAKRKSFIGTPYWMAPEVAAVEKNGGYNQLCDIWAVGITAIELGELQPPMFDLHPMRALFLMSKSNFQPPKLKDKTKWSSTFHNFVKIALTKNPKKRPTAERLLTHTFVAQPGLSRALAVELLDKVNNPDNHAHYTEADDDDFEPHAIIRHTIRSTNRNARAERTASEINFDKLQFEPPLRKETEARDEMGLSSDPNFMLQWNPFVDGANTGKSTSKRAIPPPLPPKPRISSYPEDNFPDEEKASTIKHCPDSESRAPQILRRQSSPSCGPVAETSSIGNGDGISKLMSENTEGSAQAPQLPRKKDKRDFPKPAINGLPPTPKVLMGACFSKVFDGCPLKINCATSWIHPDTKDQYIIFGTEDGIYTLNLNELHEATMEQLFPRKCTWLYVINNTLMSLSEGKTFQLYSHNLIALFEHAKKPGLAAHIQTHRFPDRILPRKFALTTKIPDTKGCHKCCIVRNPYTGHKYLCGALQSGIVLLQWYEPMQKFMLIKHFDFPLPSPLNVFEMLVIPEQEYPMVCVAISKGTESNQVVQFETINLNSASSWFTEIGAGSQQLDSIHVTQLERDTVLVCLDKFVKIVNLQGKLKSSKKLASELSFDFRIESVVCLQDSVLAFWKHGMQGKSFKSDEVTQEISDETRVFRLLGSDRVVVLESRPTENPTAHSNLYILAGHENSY

[9] = target: Tyrosine-protein kinase Fyn (Homo sapiens) (UniProt P06241); conditions: Compound concentration 1000.0 nM
[10] = target: Serine/threonine-protein kinase LATS1 (Homo sapiens) (UniProt O95835); conditions: Compound concentration 1000.0 nM
[11] = target: Serine/threonine-protein kinase OSR1 (Homo sapiens) (UniProt O95747); conditions: Compound concentration 1000.0 nM
[12] = target: Epithelial discoidin domain-containing receptor 1 (Homo sapiens) (UniProt Q08345); conditions: Compound concentration 1000.0 nM
[13] = target: Serine/threonine-protein kinase WNK2 (Homo sapiens) (UniProt Q9Y3S1); conditions: Compound concentration 1000.0 nM
[14] = target: Sigma intracellular receptor 2 (Homo sapiens) (UniProt Q5BJF2); conditions: Compound concentration 10.0 uM
Chain of Sigma intracellular receptor 2 (Homo sapiens) (Q5BJF2 whole entry): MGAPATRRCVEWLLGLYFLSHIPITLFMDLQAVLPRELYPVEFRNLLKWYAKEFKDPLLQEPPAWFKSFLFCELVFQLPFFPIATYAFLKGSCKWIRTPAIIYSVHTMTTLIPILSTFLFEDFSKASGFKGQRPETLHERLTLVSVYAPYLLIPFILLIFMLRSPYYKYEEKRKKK

[15] = target: Serine/threonine-protein kinase TAO3 (Homo sapiens) (UniProt Q9H2K8); conditions: Compound concentration 1000.0 nM
[16] = target: Beta-3 adrenergic receptor (Homo sapiens) (UniProt P13945); conditions: Compound concentration 10.0 uM
[17] = target: Phosphatidylinositol 5-phosphate 4-kinase type-2 beta (Homo sapiens) (UniProt P78356); conditions: Compound concentration 1000.0 nM
[18] = target: Serine/threonine-protein kinase SIK3 (Homo sapiens) (UniProt Q9Y2K2); conditions: Compound concentration 1000.0 nM
[19] = target: Serine/threonine-protein kinase Nek3 (Homo sapiens) (UniProt P51956); conditions: Compound concentration 1000.0 nM
[20] = target: Mu-type opioid receptor (Homo sapiens) (UniProt P35372); conditions: Compound concentration 10.0 uM
[21] = target: Beta-2 adrenergic receptor (Homo sapiens) (UniProt P07550); conditions: Compound concentration 10.0 uM
[22] = target: Serine/threonine-protein kinase 4 (Homo sapiens) (UniProt Q13043); conditions: Compound concentration 1000.0 nM
Chain of Serine/threonine-protein kinase 4 (Homo sapiens) (Q13043 whole entry): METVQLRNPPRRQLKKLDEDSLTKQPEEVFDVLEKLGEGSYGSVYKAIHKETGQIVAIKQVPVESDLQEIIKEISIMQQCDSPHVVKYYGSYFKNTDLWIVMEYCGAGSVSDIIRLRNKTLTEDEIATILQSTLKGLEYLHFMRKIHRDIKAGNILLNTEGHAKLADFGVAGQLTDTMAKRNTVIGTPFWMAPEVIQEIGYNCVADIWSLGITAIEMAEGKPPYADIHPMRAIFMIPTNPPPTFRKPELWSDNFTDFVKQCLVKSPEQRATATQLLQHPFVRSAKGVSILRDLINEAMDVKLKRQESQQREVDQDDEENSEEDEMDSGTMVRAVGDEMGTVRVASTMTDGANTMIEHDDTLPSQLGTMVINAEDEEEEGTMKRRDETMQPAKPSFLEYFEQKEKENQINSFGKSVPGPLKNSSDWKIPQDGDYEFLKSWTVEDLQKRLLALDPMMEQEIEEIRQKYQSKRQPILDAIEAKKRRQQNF

[23] = target: Dual specificity mitogen-activated protein kinase kinase 2 (Homo sapiens) (UniProt P36507); conditions: Compound concentration 1000.0 nM
[24] = target: Mitogen-activated protein kinase 11 (Homo sapiens) (UniProt Q15759); conditions: Compound concentration 1000.0 nM
[25] = target: Receptor-interacting serine/threonine-protein kinase 4 (Homo sapiens) (UniProt P57078); conditions: Compound concentration 1000.0 nM
[26] = target: Calcium/calmodulin-dependent protein kinase type 1G (Homo sapiens) (UniProt Q96NX5); conditions: Compound concentration 1000.0 nM
[27] = target: Microtubule-associated serine/threonine-protein kinase 1 (Homo sapiens) (UniProt Q9Y2H9); conditions: Compound concentration 1000.0 nM
[28] = target: Ephrin type-B receptor 6 (Homo sapiens) (UniProt O15197); conditions: Compound concentration 1000.0 nM
[29] = target: Serine/threonine-protein kinase 10 (Homo sapiens) (UniProt O94804); conditions: Compound concentration 1000.0 nM
[30] = target: Glycogen synthase kinase-3 alpha (Homo sapiens) (UniProt P49840); conditions: Compound concentration 1000.0 nM
[31] = target: NUAK family SNF1-like kinase 2 (Homo sapiens) (UniProt Q9H093); conditions: Compound concentration 1000.0 nM
Chain of NUAK family SNF1-like kinase 2 (Homo sapiens) (Q9H093 whole entry): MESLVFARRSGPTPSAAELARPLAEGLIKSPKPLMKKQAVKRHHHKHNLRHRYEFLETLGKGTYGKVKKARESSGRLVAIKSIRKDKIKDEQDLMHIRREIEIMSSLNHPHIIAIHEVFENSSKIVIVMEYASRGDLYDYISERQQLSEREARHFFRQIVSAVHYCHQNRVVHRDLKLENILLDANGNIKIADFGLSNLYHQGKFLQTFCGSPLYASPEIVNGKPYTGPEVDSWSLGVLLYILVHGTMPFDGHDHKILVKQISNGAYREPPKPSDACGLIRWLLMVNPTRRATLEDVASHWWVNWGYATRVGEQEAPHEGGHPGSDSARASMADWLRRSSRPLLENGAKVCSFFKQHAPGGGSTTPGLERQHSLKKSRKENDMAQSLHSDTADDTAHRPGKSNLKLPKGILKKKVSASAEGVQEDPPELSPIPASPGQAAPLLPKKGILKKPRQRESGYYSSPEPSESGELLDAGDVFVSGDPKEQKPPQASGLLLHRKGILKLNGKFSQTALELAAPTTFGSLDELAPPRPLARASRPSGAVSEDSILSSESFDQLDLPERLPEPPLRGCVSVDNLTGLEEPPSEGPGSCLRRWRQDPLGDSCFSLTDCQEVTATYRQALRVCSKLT

[32] = target: Tyrosine-protein kinase BTK (Homo sapiens) (UniProt Q06187); conditions: Compound concentration 1000.0 nM
[33] = target: Phosphatidylinositol 3-kinase C2 domain-containing subunit gamma (Homo sapiens) (UniProt O75747); conditions: Compound concentration 1000.0 nM
[34] = target: Ribosomal protein S6 kinase alpha-6 (Homo sapiens) (UniProt Q9UK32); conditions: Compound concentration 1000.0 nM
[35] = target: Serine/threonine-protein kinase RIO2 (Homo sapiens) (UniProt Q9BVS4); conditions: Compound concentration 1000.0 nM
[36] = test system: Receptor-type tyrosine-protein kinase FLT3 (Homo sapiens), P36888 [D835V]; conditions: Compound concentration 1000.0 nM
[37] = target: SRSF protein kinase 3 (Homo sapiens) (UniProt Q9UPE1); conditions: Compound concentration 1000.0 nM
Chain of SRSF protein kinase 3 (Homo sapiens) (Q9UPE1 whole entry): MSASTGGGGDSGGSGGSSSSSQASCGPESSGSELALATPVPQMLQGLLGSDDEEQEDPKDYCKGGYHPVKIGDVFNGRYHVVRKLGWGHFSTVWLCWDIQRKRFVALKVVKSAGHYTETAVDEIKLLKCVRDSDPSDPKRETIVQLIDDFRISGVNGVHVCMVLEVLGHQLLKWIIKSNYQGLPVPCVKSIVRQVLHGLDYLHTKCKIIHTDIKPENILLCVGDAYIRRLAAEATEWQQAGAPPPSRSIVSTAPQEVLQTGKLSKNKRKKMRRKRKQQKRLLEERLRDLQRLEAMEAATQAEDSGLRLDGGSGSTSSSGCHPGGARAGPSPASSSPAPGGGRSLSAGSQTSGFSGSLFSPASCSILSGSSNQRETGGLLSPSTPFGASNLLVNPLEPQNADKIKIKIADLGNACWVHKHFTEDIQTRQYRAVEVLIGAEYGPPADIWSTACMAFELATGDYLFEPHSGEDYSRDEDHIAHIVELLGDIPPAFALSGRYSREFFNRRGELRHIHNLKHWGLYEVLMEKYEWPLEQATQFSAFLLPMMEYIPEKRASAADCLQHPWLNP

[38] = target: Serine/threonine-protein kinase ULK2 (Homo sapiens) (UniProt Q8IYT8); conditions: Compound concentration 1000.0 nM
[39] = target: Tyrosine-protein kinase ITK/TSK (Homo sapiens) (UniProt Q08881); conditions: Compound concentration 1000.0 nM
[40] = target: Serine/threonine-protein kinase 17A (Homo sapiens) (UniProt Q9UEE5); conditions: Compound concentration 1000.0 nM
Chain of Serine/threonine-protein kinase 17A (Homo sapiens) (Q9UEE5 whole entry): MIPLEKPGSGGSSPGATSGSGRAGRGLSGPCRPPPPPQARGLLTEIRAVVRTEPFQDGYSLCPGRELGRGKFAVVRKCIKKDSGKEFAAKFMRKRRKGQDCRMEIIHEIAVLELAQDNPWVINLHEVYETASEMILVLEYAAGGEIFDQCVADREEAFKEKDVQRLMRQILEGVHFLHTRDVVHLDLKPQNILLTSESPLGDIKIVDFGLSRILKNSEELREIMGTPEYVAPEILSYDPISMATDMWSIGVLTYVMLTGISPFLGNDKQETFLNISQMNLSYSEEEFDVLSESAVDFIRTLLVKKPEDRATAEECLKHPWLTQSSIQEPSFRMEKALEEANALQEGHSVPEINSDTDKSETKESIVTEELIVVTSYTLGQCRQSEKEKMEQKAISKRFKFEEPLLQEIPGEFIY

[41] = target: Dual specificity protein kinase CLK1 (Homo sapiens) (UniProt P49759); conditions: Compound concentration 1000.0 nM
[42] = target: Atypical kinase COQ8B, mitochondrial (Homo sapiens) (UniProt Q96D53); conditions: Compound concentration 1000.0 nM
Chain of Atypical kinase COQ8B, mitochondrial (Homo sapiens) (Q96D53 whole entry): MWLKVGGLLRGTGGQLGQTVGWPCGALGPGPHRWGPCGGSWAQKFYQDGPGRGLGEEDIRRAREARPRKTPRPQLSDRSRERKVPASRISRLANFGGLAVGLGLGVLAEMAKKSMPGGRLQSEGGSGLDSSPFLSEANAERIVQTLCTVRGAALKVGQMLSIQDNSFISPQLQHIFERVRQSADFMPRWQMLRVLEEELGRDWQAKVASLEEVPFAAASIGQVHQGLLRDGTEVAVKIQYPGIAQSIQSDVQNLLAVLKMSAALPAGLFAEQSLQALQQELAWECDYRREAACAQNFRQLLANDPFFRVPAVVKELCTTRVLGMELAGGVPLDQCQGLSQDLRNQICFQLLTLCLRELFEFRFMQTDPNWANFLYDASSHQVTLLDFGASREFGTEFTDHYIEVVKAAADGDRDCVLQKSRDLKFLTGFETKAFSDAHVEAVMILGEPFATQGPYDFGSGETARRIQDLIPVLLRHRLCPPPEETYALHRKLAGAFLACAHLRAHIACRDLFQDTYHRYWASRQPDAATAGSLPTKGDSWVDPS

[43] = test system: Epidermal growth factor receptor (Homo sapiens), P00533 [UNDEFINED MUTATION]; conditions: Compound concentration 1000.0 nM
[44] = target: Mitogen-activated protein kinase 12 (Homo sapiens) (UniProt P53778); conditions: Compound concentration 1000.0 nM
[45] = test system: Tyrosine-protein kinase ABL1 (Homo sapiens), P00519 [Y253F]; conditions: Compound concentration 1000.0 nM

CN([C@@H]1CCc2c(CC(=O)O)c3ccccc3n2C1)S(=O)(=O)c1ccc(F)cc1 [MK-7246]
inactive: residual activity [1] 100% | residual activity [2] 98% | residual activity [3] 100% | residual activity [4] 92% | inhibition [5] -2.68% | residual activity [6] 100% | residual activity [7] 78% | residual activity [8] 100% | residual activity [9] 77% | residual activity [10] 69% | residual activity [11] 100% | residual activity [12] 78% | residual activity [13] 92% | inhibition [14] -9.73% | residual activity [15] 73% | inhibition [16] 26.9% | residual activity [17] 80% | residual activity [18] 98% | residual activity [19] 93% | inhibition [20] 1.33% | inhibition [21] -7.68% | residual activity [22] 98% | residual activity [23] 76% | residual activity [24] 88% | residual activity [25] 85% | residual activity [26] 100% | residual activity [27] 100% | residual activity [28] 83% | residual activity [29] 100% | residual activity [30] 90% | residual activity [31] 100% | residual activity [32] 86% | residual activity [33] 95% | residual activity [34] 100% | residual activity [35] 90% | residual activity [36] 94% | residual activity [37] 100% | residual activity [38] 100% | residual activity [39] 96% | residual activity [40] 100% | residual activity [41] 100% | residual activity [42] 100% | residual activity [43] 100% | residual activity [44] 94% | residual activity [45] 100%

CN([C@@H]1CCc2c(CC(=O)O)c3cc(S(C)(=O)=O)ccc3n2C1)S(=O)(=O)c1ccc(F)cc1
inactive: residual activity [1] 86% | residual activity [2] 100% | residual activity [3] 100% | residual activity [4] 100% | inhibition [5] -6.18% | residual activity [6] 100% | residual activity [7] 91% | residual activity [8] 100% | residual activity [9] 99% | residual activity [10] 61% | residual activity [11] 100% | residual activity [12] 100% | residual activity [13] 80% | inhibition [14] -9.3% | residual activity [15] 73% | inhibition [16] 0.851% | residual activity [17] 59% | residual activity [18] 89% | residual activity [19] 59% | inhibition [20] 7.34% | inhibition [21] 0.0525% | residual activity [22] 97% | residual activity [23] 95% | residual activity [24] 83% | residual activity [25] 75% | residual activity [26] 100% | residual activity [27] 93% | residual activity [28] 82% | residual activity [29] 100% | residual activity [30] 100% | residual activity [31] 87% | residual activity [32] 90% | residual activity [33] 82% | residual activity [34] 71% | residual activity [35] 96% | residual activity [36] 99% | residual activity [37] 100% | residual activity [38] 100% | residual activity [39] 100% | residual activity [40] 100% | residual activity [41] 100% | residual activity [42] 100% | residual activity [43] 90% | residual activity [44] 100% | residual activity [45] 82%
